The test has as its target CXCR3 (Macaca fascicularis, UniProt A0A2K5UV19). As to the kind of experiment: functional cellular assay measuring calcium flux in CXCR3 transfected cells (block of CXCR3/IP-10 interaction). As to conditions: IP-10 induced intracellular calcium flux; Cyno-CHO cells stably expressing recombinant CXCR3 and G-alpha-16; IP-10 at EC80; read-out: IC50. The test is classed as cell-based, Cyno. The gist of the method:
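Cyno-CHO cells stably expressing CXCR3 and G-alpha-16, loaded with Ca-4 dye in HBSS/10 mM HEPES pH 7.4 with 2 mM probenecid for 1 h at 37° C. Compound (final 10 microM) preincubated 15 min at room temperature, then IP-10 at EC80 added; calcium flux read at 480/540 nm.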

Structures are written as SMILES.

Sequence of CXCR3 (A0A2K5UV19 entry or part of it): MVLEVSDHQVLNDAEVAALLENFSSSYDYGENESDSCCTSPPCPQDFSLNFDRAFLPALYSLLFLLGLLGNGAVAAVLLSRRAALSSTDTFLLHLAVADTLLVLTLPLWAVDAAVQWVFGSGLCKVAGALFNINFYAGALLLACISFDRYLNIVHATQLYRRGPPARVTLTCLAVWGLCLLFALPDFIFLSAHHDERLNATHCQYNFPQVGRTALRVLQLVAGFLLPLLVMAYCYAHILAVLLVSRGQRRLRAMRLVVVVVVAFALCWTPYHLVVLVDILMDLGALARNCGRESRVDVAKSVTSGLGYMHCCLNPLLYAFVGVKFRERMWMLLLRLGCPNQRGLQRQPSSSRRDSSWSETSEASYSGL

Consider `CSc1ncc(-c2cc(C(F)(F)F)ccc2N2CCN(C(=O)Cn3ccc4cccnc43)CC2)cn1` [1-{4-[2-(2-Methylsulfanyl-pyrimidin-5-yl)-4-trifluoromethyl-phenyl]-piperazin-1-yl}-2-pyrrolo[2,3-b]pyridin-1-yl-ethanone], for which the IC50 was determined as 9 nM.

As to `Cc1cc(C)n(CC(=O)N2CCN(c3ccc(C(F)(F)F)cc3-c3cnc(N4CCC(O)CC4)nc3)CC2C)n1` (centres unmarked) [2-(3,5-dimethyl-1H-pyrazol-1-yl)-1-(4-{2-[2-(4-hydroxypiperidin-1-yl)pyrimidin-5-yl]-4-(trifluoromethyl)phenyl}-2-methylpiperazin-1-yl)ethanone], the IC50 is 8 nM. As to `CC1CN(c2ccccc2-c2cnc(S(C)(=O)=O)nc2)CCN1C(=O)Cn1cnc2cccnc21` (centres unmarked) [2-(3H-imidazo[4,5-b]pyridin-3-yl)-1-(2-methyl-4-{2-[2-(methylsulfonyl)pyrimidin-5-yl]phenyl}piperazin-1-yl)ethanone], the half-inhibitory concentration (IC50) was 434 nM.

Consider `CC1CN(c2ccc(C(F)(F)F)cc2-c2cnc(S(C)(=O)=O)nc2)CCN1C(=O)Cn1ccc2cccnc21` (centres unmarked) [1-(2-methyl-4-{2-[2-(methylsulfonyl)pyrimidin-5-yl]-4-(trifluoromethyl)phenyl}piperazin-1-yl)-2-(1H-pyrrolo[2,3-b]pyridin-1-yl)ethanone], for which the 50% inhibitory concentration (IC50) was found to be 30 nM. For `CS(=O)(=O)c1ncc(-c2cc(F)ccc2N2CCN(C(=O)CN3Cc4ccccc4C3=O)CC2)cn1` [2-[2-(4-{4-fluoro-2-[2-(methylsulfonyl)pyrimidin-5-yl]phenyl}piperazin-1-yl)-2-oxoethyl]-2,3-dihydro-1H-isoindol-1-one] the value was 249 nM; for `O=C(Cn1ccc2ccncc21)N1CCN(c2ccc(F)cc2-c2cnc(N3CCOCC3)nc2)CC1` [1-(4-{4-fluoro-2-[2-(morpholin-4-yl)pyrimidin-5-yl]phenyl}piperazin-1-yl)-2-(1H-pyrrolo[2,3-c]pyridin-1-yl)ethanone], 13 nM; for `CNc1ncc(-c2cc(C(F)(F)F)ccc2N2CCN(C(=O)Cn3ccc4cccnc43)CC2)cn1` [1-{4-[2-(2-Methylamino-pyrimidin-5-yl)-4-trifluoromethyl-phenyl]-piperazin-1-yl}-2-pyrrolo[2,3-b]pyridin-1-yl-ethanone], 5 nM. For `Cc1cc(C)n(CC(=O)N2CCN(c3ccccc3-c3cnc(N4CCOCC4)nc3)CC2)n1` [2-(3,5-Dimethyl-pyrazol-1-yl)-1-{4-[2-(2-morpholin-4-yl-pyrimidin-5-yl)-phenyl]-piperazin-1-yl}-ethanone] the value was 9 nM. Under `N#Cc1ccc(-c2ccccc2N2CCN(C(=O)Cn3ccc4cccnc43)CC2)cn1` [5-{2-[4-(2-Pyrrolo[2,3-b]pyridin-1-yl-acetyl)-piperazin-1-yl]-phenyl}-pyridine-2-carbonitrile] stands 5 nM; under `COc1ccc(N2CCN(C(=O)Cn3ccc4cccnc43)CC2)c(-c2cnc(N3CCOCC3)nc2)c1` [1-{4-[4-Methoxy-2-(2-morpholin-4-yl-pyrimidin-5-yl)-phenyl]-piperazin-1-yl}-2-pyrrolo[2,3-b]pyridin-1-yl-ethanone], 9 nM. Turning to `COc1cc(NC(=O)c2cc(F)ccc2N2CCN(C(=O)Cn3ccc4cccnc43)[C@H](C)C2)ccn1` [5-fluoro-N-(2-methoxypyridin-4-yl)-2-[(3R)-3-methyl-4-(1H-pyrrolo[2,3-b]pyridin-1-ylacetyl)piperazin-1-yl]benzamide], the IC50 is 9 nM. For `CSc1ncc(-c2cc(Cl)ccc2N2CCN(C(=O)Cn3ccc4cccnc43)CC2)cn1` [1-{4-[4-Chloro-2-(2-methylsulfanyl-pyrimidin-5-yl)-phenyl]-piperazin-1-yl}-2-pyrrolo[2,3-b]pyridin-1-yl-ethanone] the value was 8 nM; for `COc1cc(NC(=O)c2cc(F)ccc2N2CCN(C(=O)Cn3ccc4ccncc43)[C@H](C)C2)ccn1` [5-fluoro-N-(2-methoxypyridin-4-yl)-2-[(3R)-3-methyl-4-(1H-pyrrolo[2,3-c]pyridin-1-ylacetyl)piperazin-1-yl]benzamide], 9 nM; for `COc1cc(NC(=O)c2cc(F)ccc2N2CCN(C(=O)Cn3cnc4cccnc43)[C@H](C)C2)ccn1` [5-fluoro-2-[(3R)-4-(3H-imidazo[4,5-b]pyridin-3-ylacetyl)-3-methylpiperazin-1-yl]-N-(2-methoxypyridin-4-yl)benzamide], 7 nM. For `O=C(Cn1c(=O)[nH]c2ccccc21)N1CCN(c2ccccc2-c2cnc(N3CCOCC3)nc2)CC1` [1-(2-{4-[2-(2-Morpholin-4-yl-pyrimidin-5-yl)-phenyl]-piperazin-1-yl}-2-oxo-ethyl)-1,3-dihydro-benzoimidazol-2-one] the value was 10 nM; for `Cc1cc(C)n(CC(=O)N2CCN(c3ccccc3-c3cnc(Oc4ccccc4)nc3)CC2)n1` [2-(3,5-Dimethyl-pyrazol-1-yl)-1-{4-[2-(2-phenoxy-pyrimidin-5-yl)-phenyl]-piperazin-1-yl}-ethanone], 39 nM. Consider `CC(C)C(=O)N(C)CC(=O)N1CCN(c2ccc(F)cc2C(=O)Nc2nc3c(s2)CN(C)CC3)C[C@H]1C` [5-fluoro-2-{(3R)-3-methyl-4-[N-methyl-N-(2-methylpropanoyl)glycyl]piperazin-1-yl}-N-(5-methyl-4,5,6,7-tetrahydro[1,3]thiazolo[5,4-c]pyridin-2-yl)benzamide], for which the 50% inhibitory concentration (IC50) came to 19 nM. For `CC1CN(c2ccccc2-c2cnc(N3CCC(O)CC3)nc2)CCN1C(=O)Cn1ccc2cccnc21` (centres unmarked) [1-(4-{2-[2-(4-hydroxypiperidin-1-yl)pyrimidin-5-yl]phenyl}-2-methylpiperazin-1-yl)-2-(1H-pyrrolo[2,3-b]pyridin-1-yl)ethanone] the value was 9 nM; for `COc1ncc(-c2cc(C(F)(F)F)ccc2N2CCN(C(=O)Cn3nc(C)cc3C)CC2)cn1` [2-(3,5-Dimethyl-pyrazol-1-yl)-1-{4-[2-(2-methoxy-pyrimidin-5-yl)-4-trifluoromethyl-phenyl]-piperazin-1-yl}-ethanone], 8 nM. With `O=C(Cn1c(=O)[nH]c2ccccc21)N1CCN(c2ccc(F)cc2-c2cnc(N3CCCC3)nc2)CC1` [1-[2-(4-{4-fluoro-2-[2-(pyrrolidin-1-yl)pyrimidin-5-yl]phenyl}piperazin-1-yl)-2-oxoethyl]-1,3-dihydro-2H-benzimidazol-2-one], the 50% inhibitory concentration (IC50) worked out at 14 nM. As to `O=C(Cn1ccc2cccnc21)N1CCN(c2ccc(Cl)cc2-c2cnc(N3CCOCC3)nc2)CC1` [1-{4-[4-Chloro-2-(2-morpholin-4-yl-pyrimidin-5-yl)-phenyl]-piperazin-1-yl}-2-pyrrolo[2,3-b]pyridin-1-yl-ethanone], the IC50 was 13 nM. Under `COc1ncc(-c2ccccc2N2CCN(C(=O)Cn3ccc4c(Cl)ncnc43)CC2)cn1` [2-(4-Chloro-pyrrolo[2,3-d]pyrimidin-7-yl)-1-{4-[2-(2-methoxy-pyrimidin-5-yl)-phenyl]-piperazin-1-yl}-ethanone] stands 48 nM. Under `CSc1ncc(-c2cc(C#N)ccc2N2CCN(C(=O)Cn3ccc4cccnc43)CC2)cn1` [3-(2-Methylsulfanyl-pyrimidin-5-yl)-4-[4-(2-pyrrolo[2,3-b]pyridin-1-yl-acetyl)-piperazin-1-yl]-benzonitrile] stands 4 nM.

Regarding `CC1CN(c2ccc(C(F)(F)F)cc2-c2cnc(N3CCC(O)CC3)nc2)CCN1C(=O)Cn1cnc2cccnc21` (centres unmarked) [1-(4-{2-[2-(4-hydroxypiperidin-1-yl)pyrimidin-5-yl]-4-(trifluoromethyl)phenyl}-2-methylpiperazin-1-yl)-2-(3H-imidazo[4,5-b]pyridin-3-yl)ethanone], the IC50 amounted to 11 nM. On to `Cc1cc(C)n(CC(=O)N2CCN(c3ccccc3-c3cnc(N4CCC(C(C)(C)O)CC4)nc3)CC2)n1` [2-(3,5-Dimethyl-pyrazol-1-yl)-1-[4-(2-{2-[4-(1-hydroxy-1-methyl-ethyl)-piperidin-1-yl]-pyrimidin-5-yl}-phenyl)-piperazin-1-yl]-ethanone], for which the 50% inhibitory concentration (IC50) turned out to be 12 nM.

Take `COc1ccc(-c2ccccc2N2CCN(C(=O)Cn3ccc4cccnc43)CC2)cn1` [1-{4-[2-(6-Methoxy-pyridin-3-yl)-phenyl]-piperazin-1-yl}-2-pyrrolo[2,3-b]pyridin-1-yl-ethanone]: the IC50 came out at 34 nM. As for `COc1cc(NC(=O)c2cc(F)ccc2N2CCN(C(=O)Cn3nc(C)cc3C)[C@H](C)C2)ccn1` [2-{(3R)-4-[(3,5-dimethyl-1H-pyrazol-1-yl)acetyl]-3-methylpiperazin-1-yl}-5-fluoro-N-(2-methoxypyridin-4-yl)benzamide], the 50% inhibitory concentration (IC50) was 8 nM. Under `O=C(CN1CCCCC1=O)N1CCN(c2ccc(F)cc2-c2cnc(N3CCCC3)nc2)CC1` [1-[2-(4-{4-fluoro-2-[2-(pyrrolidin-1-yl)pyrimidin-5-yl]phenyl}piperazin-1-yl)-2-oxoethyl]piperidin-2-one] stands 23 nM; under `Cc1cc(C)n(CC(=O)N2CCN(c3ccccc3-c3cnc(C)nc3)CC2)n1` [2-(3,5-Dimethyl-pyrazol-1-yl)-1-{4-[2-(2-methyl-pyrimidin-5-yl)-phenyl]-piperazin-1-yl}-ethanone], 67 nM; under `Cc1cc(C)n(CC(=O)N2CCN(c3ccccc3-c3cccc(Cl)c3)CC2)n1` [1-[4-(3′-Chloro-biphenyl-2-yl)-piperazin-1-yl]-2-(3,5-dimethyl-pyrazol-1-yl)-ethanone], 111 nM. Under `CC1CN(c2ccccc2-c2cnc(N3CCC(S(C)(=O)=O)CC3)nc2)CCN1C(=O)Cn1c(=O)[nH]c2ccccc21` (centres unmarked) [1-{2-[2-methyl-4-(2-{2-[4-(methylsulfonyl)piperidin-1-yl]pyrimidin-5-yl}phenyl)piperazin-1-yl]-2-oxoethyl}-1,3-dihydro-2H-benzimidazol-2-one] stands 11 nM. Under `CC1CN(C(=O)Cn2ccc3cccnc32)CCN1c1ccccc1-c1cnc(N2CCOCC2)nc1` (centres unmarked) [1-{3-Methyl-4-[2-(2-morpholin-4-yl-pyrimidin-5-yl)-phenyl]-piperazin-1-yl}-2-pyrrolo[2,3-b]pyridin-1-yl-ethanone] stands 11 nM.

For the origin of these results see patent publication US8450317B2, “CXCR3 receptor antagonists” (Boehringer Ingelheim International GmbH, priority 2009, dated 2013).
